Patent US10047105B2, “Gyrase inhibitors” (Merck Sharp & Dohme Corp., priority 2009, dated 2018)
Values after ≈ are worked out from the molar mass of the structure shown.

Assays:
S. aureus ATCC 13709 = experiment: MIC, antibacterial potency, S. aureus; type: cell-based
S. pneumoniae ATCC 51916 = experiment: MIC, S. pneumoniae; type: cell-based
[1] = S. pneumoniae (Spn52), in µg/mL

| MIC, SA (S. aureus ATCC 13709; S. aureus (SA), in µg/mL) | MIC Spn52 (S. pneumoniae ATCC 51916; [1]) | Compound | MIC, SA (S. aureus ATCC 13709; S. aureus) [µg/mL] | MIC Spn52 (S. pneumoniae ATCC 51916; S. pneumoniae) [µg/mL] |
| --- | --- | --- | --- | --- |
| – | – | CCc1[nH]c2nc(Sc3nc(C(=O)O)cs3)nc(N3CC(F)(F)C3)c2c1Cl.O=C(O)C(F)(F)F [700,338] | 8 | 64 |
| – | – | CCc1[nH]c2nc(Sc3cnc4nccnc4c3)nc(N3CCC(C(O)c4cccs4)CC3)c2c1Cl.O=C(O)C(F)(F)F (centres unmarked) [700,656] | ≤ 0.5 | 2 |
| – | – | CCc1[nH]c2nc(Sc3cnc4nccnc4c3)nc(N3CC(CNC(=O)C4CCC4)C3)c2c1Cl [700,517] | ≤ 0.5 | 2 (≈ 3.93 µM) |
| 16 | 32 | CCc1[nH]c2nc(Sc3cncc(N)c3)nc(N3CC[C@@H](N)C3)c2c1Cl [700,820] | – | – |
| – | – | CCc1[nH]c2nc(Sc3cnc4nccnc4c3)nc(Oc3cccnc3)c2c1Cl [700,432] | 1 (≈ 2.29 µM) | 4 (≈ 9.18 µM) |
| – | – | CCOC(=O)Cn1c(=O)cc(Sc2nc(N3CC(O)C3)c3c(Br)c(CC)[nH]c3n2)[nH]c1=O [700,386, Ethyl 2-(4-(5-bromo-6-ethyl-4-(3-hydroxyazetidin-1-yl)-7H-pyrrolo[2,3-d]pyrimidin-2-ylthio)-2,6-dioxo-2,3-dihydropyrimidin-1 (6H)-yl)acetate] | ≤ 0.5 | 8 (≈ 15.2 µM) |
| – | – | CCOc1nc(Sc2nc(C(=O)OC)cs2)nc2[nH]c(CC)c(Br)c12 [700,281] | 32 (≈ 72.2 µM) | 64 (≈ 144 µM) |
| 4 | 4 | CCc1[nH]c2nc(Sc3cnc4c(N)nc(CN5CCOCC5)nc4c3)nc(N3CC[C@@H](N)C3)c2c1Cl [700,812] | – | – |
| – | – | CCc1[nH]c2nc(Sc3cnc4nccnc4c3)nc(N3CC(CNC(=O)c4cn(C)nc4C(F)(F)F)C3)c2c1Cl [700,524] | ≤ 0.5 | ≤ 0.5 |
| – | – | CCc1[nH]c2nc(Sc3cnc4nccnc4c3)nc(OC3CNC3)c2c1Br [700,481] | 8 (≈ 17.5 µM) | 2 (≈ 4.36 µM) |
| – | – | CCOc1nc(Nc2cc(OC)c(OC)c(OC)c2Br)nc2[nH]c(CC)c(Br)c12.O=C(O)C(F)(F)F [700,389] | > 64 | > 64 |
| – | – | CCc1[nH]c2nc(Sc3cnc4nccnc4c3)nc(N3CC(CNC(=O)CN4C(=O)CSC4=O)C3)c2c1Cl [700,519] | 1 (≈ 1.71 µM) | 1 (≈ 1.71 µM) |
| – | – | CCc1[nH]c2nc(Sc3cnc4nccnc4c3)nc(N3CC[C@@H](C)[C@@H](N)C3)c2c1Cl [700,595] | 8 (≈ 17.6 µM) | 8 (≈ 17.6 µM) |
| – | – | CCc1[nH]c2nc(Sc3cccnc3)nc(NCCCn3ccnc3)c2c1Br.O=C(O)C(F)(F)F.O=C(O)C(F)(F)F [700,269] | 4 | 16 |
| – | – | CCOc1nc(S(C)(=O)=O)nc2[nH]c(CC)c(Br)c12 [700,288] | > 64 | 64 (≈ 184 µM) |
| – | – | CCOc1nc(Oc2ccc3[nH]ccc3c2)nc2[nH]c(CC)c(Cl)c12.O=C(O)C(F)(F)F [700,699] | 2 | 64 |
| 32 | >32 | CCc1[nH]c2nc(Cc3cccnc3)nc(Oc3cccc(C#N)c3)c2c1Cl [700,875] | – | – |
| – | – | CCOc1nc(Nc2cnc3cccnc3n2)nc2[nH]c(CC)c(Br)c12.Cl.Cl [700,378] | > 64 | > 64 |
| – | – | CCc1[nH]c2nc(Oc3cccnc3)nc(Oc3cccnc3)c2c1Br.O=C(O)C(F)(F)F [700,598] | 1 | 2 |
| – | – | CCc1[nH]c2nc(Sc3cnc4nccnc4c3)nc(N3CC(CN(C)C)C3)c2c1Cl.O=C(O)C(F)(F)F.O=C(O)C(F)(F)F [700,602] | 4 | 4 |
| – | – | CCc1[nH]c2nc(Sc3ccc4c(NC)ncnc4c3)nc(N3CCC(N)C3)c2c1Cl (centres unmarked) [700,576] | 8 (≈ 17.6 µM) | 16 (≈ 35.2 µM) |

| MIC, SA (S. aureus ATCC 13709; S. aureus (SA), in µg/mL) | MIC Spn52 (S. pneumoniae ATCC 51916; [1]) | Compound | MIC, SA (S. aureus ATCC 13709; S. aureus) [µg/mL] | MIC Spn52 (S. pneumoniae ATCC 51916; S. pneumoniae) [µg/mL] |
| --- | --- | --- | --- | --- |
| 1 | <=0.5 | CCc1[nH]c2nc(Sc3cc(Cl)c4c(N)nc(C)nc4c3)nc(N3CC[C@@H](N)C3)c2c1Cl [700,865] | – | – |
| – | – | CCc1[nH]c2nc(Sc3cnc4c(C#N)cnn4c3)nc(N3CC[C@@H](N)C3)c2c1Cl [700,718] | 4 (≈ 9.09 µM) | 8 (≈ 18.2 µM) |
| – | – | CCNc1ccc(Sc2nc(OCC)c3c(Cl)c(CC)[nH]c3n2)nn1 [700,325] | > 64 | > 64 |
| – | – | CCOc1nc(Sc2cnc3cccnc3n2)nc2[nH]c(CC)c(Br)c12 [700,297] | ≤ 0.5 | 2 (≈ 4.64 µM) |
| – | – | CCc1[nH]c2nc(Sc3ccc4cc(C(=O)N[C@H]5CCOC5=O)cnc4c3)nc(N3CC[C@@H](N)C3)c2c1Cl [700,697] | 4 (≈ 7.25 µM) | 8 (≈ 14.5 µM) |
| – | – | CCc1[nH]c2nc(Sc3cccnc3)nc(Cl)c2c1Cl.O=C(O)C(F)(F)F [700,268] | 4 | 16 |
| – | – | CCc1[nH]c2nc(Sc3cnc4nccnc4c3)nc(N3CC(C)(NC(=O)OC(C)(C)C)C3)c2c1Cl.O=C(O)C(F)(F)F [700,629] | ≤ 0.5 | 2 |
| – | – | CCc1[nH]c2nc(Sc3cnc4nccnc4c3)nc(N3CCC4CNCC43)c2c1Cl.O=C(O)C(F)(F)F (centres unmarked) [700,564] | 8 | 16 |
| – | – | CCOc1nc(Nc2cccc(C(=O)O)c2)nc2[nH]c(CC)c(Br)c12.O=C(O)C(F)(F)F [700,354] | 2 | > 64 |
| >64 | >64 | CCc1[nH]c2nc(Sc3cnc4cccnc4c3)nc(N3CCC(N)(C(=O)N[C@H]4CCOC4=O)C3)c2c1Cl (some centres unmarked) [700,888] | – | – |
| <=0.5 | 2 | CCc1[nH]c2nc(Sc3cnc4nccnc4c3)nc(N3CCC(CO)C3)c2c1Cl (centres unmarked) [700,830] | – | – |
| – | – | CCc1[nH]c2nc(Oc3cncnc3)nc(N3CC(O)C3)c2c1Cl.O=C(O)C(F)(F)F [700,458] | 2 | 8 |
| – | – | CCc1[nH]c2nc(Sc3cnc4nccnc4c3)nc(N3CC(NC(=O)CN4CCNCC4)C3)c2c1Cl.O=C(O)C(F)(F)F.O=C(O)C(F)(F)F [700,504] | 4 | 32 |
| – | – | CCc1[nH]c2nc(Sc3cccnc3)nc(NCCCn3ccnc3)c2c1C=O.O=C(O)C(F)(F)F.O=C(O)C(F)(F)F [700,261] | 16 | 32 |
| – | – | CCOc1nc(Oc2ccc3nc(C)ccc3c2)nc2[nH]c(CC)c(Cl)c12.O=C(O)C(F)(F)F [700,690] | > 64 | 8 |
| 2 | 8 | CCc1[nH]c2nc(Sc3cncc(C#N)c3)nc(N3CC[C@@H](N)C3)c2c1Cl [700,824] | – | – |
| – | – | CCc1[nH]c2nc(Sc3cnc4cccnc4n3)nc(N3CC(O)C3)c2c1Cl [700,345] | ≤ 0.5 | 2 (≈ 4.83 µM) |
| – | – | CCc1[nH]c2nc(Sc3cnc4nccnc4c3)nc(N3CCc4nc(N)sc4C3)c2c1Cl [700,456] | ≤ 0.5 | 4 (≈ 8.06 µM) |
| 8 | 8 | CCc1[nH]c2nc(Sc3cnc4nccnc4c3)nc(N3CCC4(CCNCC4)C3)c2c1Cl [700,900] | – | – |
| – | – | CCc1[nH]c2nc(Sc3cnc4nccnc4c3)nc(N3CC4CNC4C3)c2c1Br.O=C(O)C(F)(F)F (centres unmarked) [700,673] | 2 | 4 |
| – | – | CCc1[nH]c2nc(Sc3ccc4c(c3)C(=O)NC4)nc(N3CC[C@@H](N)C3)c2c1Cl [700,711] | 1 (≈ 2.33 µM) | 8 (≈ 18.7 µM) |

| MIC, SA (S. aureus ATCC 13709; S. aureus (SA), in µg/mL) | MIC Spn52 (S. pneumoniae ATCC 51916; [1]) | Compound | MIC, SA (S. aureus ATCC 13709; S. aureus) [µg/mL] | MIC Spn52 (S. pneumoniae ATCC 51916; S. pneumoniae) [µg/mL] |
| --- | --- | --- | --- | --- |
| >64 | 32 | CCc1[nH]c2nc(Sc3ccc4nc(C)cc(C(N)=O)c4c3)nc(C3CC[C@@H](N)C3)c2c1Cl (some centres unmarked) [700,862] | – | – |
| – | – | CCc1[nH]c2nc(Sc3cnc4nccnc4c3)nc(N3C[C@H]4CCCN[C@H]4C3)c2c1Cl.O=C(O)C(F)(F)F [700,568] | ≤ 0.5 | 2 |
| <=0.5 | 2 | CCc1[nH]c2nc(Sc3cnc4nccnc4c3)nc(Oc3cccc(C#N)c3)c2c1Cl [700,833] | – | – |
| <=0.5 | <=0.5 | CCc1[nH]c2nc(Oc3cnc4ccoc4c3)nc(Oc3cnc4ccoc4c3)c2c1Br [700,883] | – | – |
| >64 | >64 | CCc1[nH]c2nc(Sc3ccc4c(N)nc(CN5CCC(N)CC5)nc4c3)nc(N3CC[C@@H](N)C3)c2c1Cl [700,846] | – | – |
| – | – | CCc1[nH]c2nc(Sc3cnc4nccnc4c3)nc(N3CC(N4CCCCC4)C3)c2c1Cl.O=C(O)C(F)(F)F.O=C(O)C(F)(F)F [700,605] | 4 | 8 |
| – | – | CCc1[nH]c2nc(Sc3cnc4ccoc4c3)nc(N3CC4CNC4C3)c2c1Cl.O=C(O)C(F)(F)F (centres unmarked) [700,677] | 2 | 8 |
| – | – | CCc1[nH]c2nc(Sc3cnc4nccnc4c3)nc(OS(=O)(=O)c3ccc(C)cc3)c2c1Cl [700,558] | 8 (≈ 15.6 µM) | > 64 |
| 2 | 4 | CCc1[nH]c2nc(Sc3cnc4cccnc4c3)nc(N3C[C@@H]4[C@H](C3)[C@@]4(N)CN)c2c1Cl [700,885] | – | – |
| – | – | CCc1[nH]c2nc(Sc3cnc4nccnc4c3)nc(N3CC(Oc4ccc(C(F)(F)F)cc4)C3)c2c1Cl.O=C(O)C(F)(F)F [700,669] | > 64 | > 64 |
| >64 | >64 | CCc1[nH]c2nc(Sc3ccc4c(N5CC(C6(N)CC6)C5)cc(C(=O)O)nc4c3)nc(N3CC[C@@H](N)C3)c2c1Cl [700,860] | – | – |
| – | – | CCc1[nH]c2nc(Oc3ccc(OC)nc3)nc(Oc3ccc(OC)nc3)c2c1Br.O=C(O)C(F)(F)F [700,591] | 2 | > 64 |
| – | – | CCc1[nH]c2nc(Sc3ccc4c(N5CC(N)C5)ncnc4c3)nc(N3CCC(N)C3)c2c1Cl (centres unmarked) [700,597] | 16 (≈ 32.3 µM) | 16 (≈ 32.3 µM) |
| – | – | CCc1[nH]c2nc(Sc3cnc4nccnc4c3)nc(NC[C@H](C)O)c2c1Cl [700,457] | 1 (≈ 2.4 µM) | 2 (≈ 4.81 µM) |
| 1 | 2 | CCc1[nH]c2nc(Sc3cnc4cccnc4c3)nc(N3C[C@@H](N)[C@H](c4ccccc4)C3)c2c1Cl [700,872] | – | – |
| – | – | CCOc1nc(Sc2nc(C(=O)OC)c(C(C)C)s2)nc2[nH]c(CC)c(Br)c12 [700,301] | 64 (≈ 132 µM) | > 64 |
| 32 | >64 | CCc1[nH]c2nc(Sc3ccc4c(N5CC(CN)C5)ncnc4c3)nc(N3CC[C@@H](N)C3)c2c1Cl [700,904] | – | – |
| – | – | CCOc1nc(Nc2cncnc2)nc2[nH]c(CC)c(Br)c12.O=C(O)C(F)(F)F [700,701] | 1 | 8 |
| – | – | CCc1[nH]c2nc(Sc3cnc4nccnc4c3)nc(N3CC(CNC(=O)C4CCCO4)C3)c2c1Cl (centres unmarked) [700,522] | ≤ 0.5 | 2 (≈ 3.81 µM) |
